Results reported in US20230398130A1, “METHODS AND COMPOSITIONS FOR DIFFERENTIATING STEM CELLS” (Massachusetts Institute of Technology, priority 2020, published 2023).

Assays:
ISC-enriched organoids [1] = test: Primary screen, 384-well 2.5-D organoid differentiation (ENR+CD, 6 days): basal lysozyme secretion (LYZ.NS); format: cell-based, murine; conditions: primary screen; for Dose.FC.LYZ.NS (log 2 fold change): vs plate median
From the text: (§1) High-throughput screening.

ISC-enriched organoids [2] = test: Primary screen, 384-well 2.5-D organoid differentiation (ENR+CD, 6 days): carbachol-induced lysozyme secretion (LYZ.S); format: cell-based, murine; conditions: primary screen, vs plate median
From the text: as §1

ISC-enriched organoids [3] = test: Primary screen, 384-well 2.5-D organoid differentiation (ENR+CD, 6 days, Target Selective Inhibitor Library, vs whole-plate median): ATP (CellTiter-Glo 3D, CTG); conditions: primary screen; for Dose.FC.CTG (log 2 fold change): vs plate median

| SMILES | Z.LYZ.NS (standard z score) (ISC-enriched organoids [1]; Dose 0.08 uM) | Dose.FC.LYZ.NS (log 2 fold change) (ISC-enriched organoids [1]; Dose 0.08 uM) | Z.LYZ.NS (standard z score) (ISC-enriched organoids [1]; Dose 0.40 uM) | Dose.FC.LYZ.NS (log 2 fold change) (ISC-enriched organoids [1]; Dose 0.40 uM) | Z.LYZ.NS (standard z score) (ISC-enriched organoids [1]; Dose 2.00 uM) | Dose.FC.LYZ.NS (log 2 fold change) (ISC-enriched organoids [1]; Dose 2.00 uM) | Z.LYZ.NS (standard z score) (ISC-enriched organoids [1]; Dose 10.00 uM) | Dose.FC.LYZ.NS (log 2 fold change) (ISC-enriched organoids [1]; Dose 10.00 uM) | Dose.FC.LYZ.S (log 2 fold change) (ISC-enriched organoids [2]; Dose 0.08 uM) | Dose.FC.LYZ.S (log 2 fold change) (ISC-enriched organoids [2]; Dose 0.40 uM) | Dose.FC.LYZ.S (log 2 fold change) (ISC-enriched organoids [2]; Dose 2.00 uM) | Dose.FC.LYZ.S (log 2 fold change) (ISC-enriched organoids [2]; Dose 10.00 uM) | Z.CTG (standard z score) (ISC-enriched organoids [3]; Dose 0.08 uM) | Dose.FC.CTG (log 2 fold change) (ISC-enriched organoids [3]; Dose 0.08 uM) | Z.CTG (standard z score) (ISC-enriched organoids [3]; Dose 0.40 uM) | Dose.FC.CTG (log 2 fold change) (ISC-enriched organoids [3]; Dose 0.40 uM) | Z.CTG (standard z score) (ISC-enriched organoids [3]; Dose 2.00 uM) | Dose.FC.CTG (log 2 fold change) (ISC-enriched organoids [3]; Dose 2.00 uM) | Z.CTG (standard z score) (ISC-enriched organoids [3]; Dose 10.00 uM) | Dose.FC.CTG (log 2 fold change) (ISC-enriched organoids [3]; Dose 10.00 uM) |
| --- | --- | --- | --- | --- | --- | --- | --- | --- | --- | --- | --- | --- | --- | --- | --- | --- | --- | --- | --- | --- |
| Cc1cc(Nc2ccc(NC(=O)c3ccc(Nc4ccnc5ccccc45)cc3)cc2)nc(N)n1 [SGI-1027] | 0.528 | 0.061 | 0.735 | 0.084 | 1.123 | 0.129 | −0.046 | −0.005 | 0.060 | 0.145 | 0.094 | 0.018 | 0.583 | 0.244 | 0.712 | 0.298 | 0.412 | 0.172 | 0.125 | 0.052 |
| CN1CCC(CNc2ccc3ncc(-c4cccc(OC(F)(F)F)c4)n3n2)CC1 [SGI-1776free base] | 1.013 | 0.116 | 0.362 | 0.042 | 0.108 | 0.012 | −1.784 | −0.205 | 0.159 | 0.088 | 0.011 | −0.317 | 0.407 | 0.170 | 0.665 | 0.278 | 0.506 | 0.212 | −2.468 | −1.033 |
| Oc1ccc(Nc2nc(-c3ccc(Cl)cc3)cs2)cc1 [SKI II] | 0.683 | 0.078 | 1.906 | 0.219 | 0.647 | 0.074 | −1.362 | −0.156 | 0.090 | 0.123 | 0.061 | −0.191 | 0.699 | 0.293 | 0.531 | 0.222 | 0.473 | 0.198 | −0.802 | −0.336 |
| O=C1NC(=O)/C(=C/c2cccc(C(F)(F)F)c2)S1 [SMI-4a] | 0.188 | 0.022 | −0.524 | −0.060 | 0.283 | 0.032 | −0.643 | −0.074 | 0.036 | −0.063 | −0.042 | −0.134 | −0.366 | −0.153 | −0.758 | −0.317 | −0.793 | −0.332 | −0.781 | −0.327 |
| CC(C)(C)c1cnc(CSc2cnc(NC(=O)C3CCNCC3)s2)o1 [SNS-032 (BMS-387032)] | 0.428 | 0.049 | −1.241 | −0.143 | −2.399 | −0.276 | −2.214 | −0.254 | 0.070 | −0.206 | −0.301 | −0.361 | −0.180 | −0.075 | −0.198 | −0.083 | −2.186 | −0.915 | −2.411 | −1.009 |
| O=C(Nc1cc(C(F)(F)F)ccc1N1CCCCC1)c1ccncc1 [SRPIN340] | 1.004 | 0.115 | 0.348 | 0.040 | 0.846 | 0.097 | 0.192 | 0.022 | 0.112 | 0.098 | 0.100 | 0.078 | 1.005 | 0.421 | 1.063 | 0.445 | 1.083 | 0.453 | 1.115 | 0.467 |
| O=C(Nc1ccccc1-c1cn2c(CN3CCNCC3)csc2n1)c1cnc2ccccc2n1 [SRT1720] | 1.495 | 0.172 | 0.972 | 0.112 | 0.613 | 0.070 | −0.906 | −0.104 | 0.190 | 0.099 | 0.051 | −0.193 | 1.264 | 0.529 | 0.940 | 0.394 | 0.810 | 0.339 | −2.427 | −1.016 |
| COc1c(C)c(C(=O)c2ccc(N)c(C(=O)[O-])c2)n2ccccc12.[Na+] [SSR128129E] | 0.807 | 0.093 | 0.339 | 0.039 | 0.257 | 0.030 | −0.850 | −0.098 | 0.086 | 0.122 | 0.023 | −0.095 | 0.210 | 0.088 | 0.545 | 0.228 | 0.291 | 0.122 | −0.063 | −0.026 |
| Cc1ccc(S(=O)(=O)Cc2nc(-c3ccc(C(=O)NCc4cccnc4)cc3)oc2C)cc1 [STF-118804] | −1.349 | −0.155 | −1.824 | −0.210 | −1.502 | −0.172 | −1.541 | −0.177 | −0.257 | −0.212 | −0.271 | −0.300 | −0.360 | −0.151 | −3.346 | −1.401 | −2.189 | −0.916 | −3.195 | −1.338 |
| O=C(/C=C/c1ccccc1)NC(NC(=S)Nc1ccc(Cl)cc1)C(Cl)(Cl)Cl (stereo not shown) [Sal003] | 1.013 | 0.116 | 1.595 | 0.183 | 0.670 | 0.077 | −2.142 | −0.246 | 0.092 | 0.067 | 0.040 | −0.408 | 0.456 | 0.191 | 0.370 | 0.155 | 0.468 | 0.196 | −1.981 | −0.829 |
| Cn1cnc2c(F)c(Nc3ccc(Br)cc3Cl)c(C(=O)NOCCO)cc21 [Selumetinib (AZD6244)] | 0.181 | 0.021 | −0.188 | −0.022 | −0.847 | −0.097 | −1.220 | −0.140 | 0.004 | −0.047 | −0.175 | −0.211 | 0.393 | 0.164 | −0.395 | −0.165 | −0.613 | −0.257 | −2.035 | −0.852 |
